# Measurements reported in ChEMBL document CHEMBL1201862, “PubChem BioAssay data set” (2004).
# Activity calls are given as the source filed them.
# Key:
# Format in all cases: functional
# Prothrombin = Prothrombin (Homo sapiens, UniProt P00734); assay: Thrombin 1536 HTS Dose Response Confirmation. [Related pubchem assays: 1046 (Thrombin 1536 HTS; hits were confirmed in this assay)]
# [1] = molecular target: T1, Replicative DNA helicase DnaB (Mycobacterium tuberculosis, UniProt P9WMR3); assay: DnaB intein splicing inhibitors, dose response, biochemical, cell-free fluorescence (AID 449749)
# T1 sequence (P9WMR3 whole entry): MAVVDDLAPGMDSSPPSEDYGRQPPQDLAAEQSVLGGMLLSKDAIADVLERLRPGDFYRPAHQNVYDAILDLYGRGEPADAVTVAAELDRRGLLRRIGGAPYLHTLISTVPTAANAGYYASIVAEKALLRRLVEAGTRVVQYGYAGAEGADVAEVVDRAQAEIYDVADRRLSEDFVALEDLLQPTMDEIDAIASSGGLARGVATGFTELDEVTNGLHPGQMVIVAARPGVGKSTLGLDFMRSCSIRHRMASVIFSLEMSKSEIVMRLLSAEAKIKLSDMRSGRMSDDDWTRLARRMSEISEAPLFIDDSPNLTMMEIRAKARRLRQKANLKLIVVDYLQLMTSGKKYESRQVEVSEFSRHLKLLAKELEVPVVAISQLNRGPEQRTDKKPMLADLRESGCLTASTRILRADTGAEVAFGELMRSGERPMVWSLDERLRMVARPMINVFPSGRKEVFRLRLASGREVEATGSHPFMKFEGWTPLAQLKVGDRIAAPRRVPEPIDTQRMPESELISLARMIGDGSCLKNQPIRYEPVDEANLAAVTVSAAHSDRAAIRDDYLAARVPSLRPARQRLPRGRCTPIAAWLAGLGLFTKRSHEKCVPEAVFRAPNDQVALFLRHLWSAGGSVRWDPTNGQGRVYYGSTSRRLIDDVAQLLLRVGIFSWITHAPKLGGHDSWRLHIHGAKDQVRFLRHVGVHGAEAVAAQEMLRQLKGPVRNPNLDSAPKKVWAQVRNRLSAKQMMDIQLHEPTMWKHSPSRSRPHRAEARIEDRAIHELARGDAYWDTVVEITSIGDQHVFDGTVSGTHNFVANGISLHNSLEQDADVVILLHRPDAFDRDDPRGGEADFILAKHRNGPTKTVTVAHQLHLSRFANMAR
# Protein RecA = molecular target: T2, Protein RecA (Mycobacterium tuberculosis, UniProt P9WHJ3); assay: Fluorescence Cell-Free Homogeneous Dose Retest to Identify Inhibitors of RecA-Intein Splicing Activity. [Related pubchem assays (depositor defined):AID2097, AID2223, AID489010, AID492950]
# T2 sequence (P9WHJ3 whole entry): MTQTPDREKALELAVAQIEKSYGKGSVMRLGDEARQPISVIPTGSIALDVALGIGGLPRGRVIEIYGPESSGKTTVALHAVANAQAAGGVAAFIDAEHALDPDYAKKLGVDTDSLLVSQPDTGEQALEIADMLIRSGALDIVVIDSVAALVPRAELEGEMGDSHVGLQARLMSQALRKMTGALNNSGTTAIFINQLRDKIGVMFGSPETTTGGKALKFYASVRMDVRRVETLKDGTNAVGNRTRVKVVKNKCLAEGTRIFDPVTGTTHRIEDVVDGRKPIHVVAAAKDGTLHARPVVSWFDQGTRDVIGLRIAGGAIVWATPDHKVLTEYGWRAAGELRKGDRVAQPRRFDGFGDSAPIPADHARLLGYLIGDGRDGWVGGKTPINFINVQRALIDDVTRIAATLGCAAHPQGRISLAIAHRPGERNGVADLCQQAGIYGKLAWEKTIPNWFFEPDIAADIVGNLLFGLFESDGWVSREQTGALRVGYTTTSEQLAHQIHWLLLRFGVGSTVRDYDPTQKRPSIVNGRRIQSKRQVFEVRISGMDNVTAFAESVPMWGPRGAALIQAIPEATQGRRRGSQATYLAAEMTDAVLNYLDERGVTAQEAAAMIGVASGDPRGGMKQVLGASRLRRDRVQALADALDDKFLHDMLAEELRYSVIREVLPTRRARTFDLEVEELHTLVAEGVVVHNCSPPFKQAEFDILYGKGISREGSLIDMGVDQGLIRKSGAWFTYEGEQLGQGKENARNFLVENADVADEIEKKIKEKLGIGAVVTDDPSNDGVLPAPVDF
# [2] = molecular target: Phosphorylase b kinase gamma catalytic chain, liver/testis isoform (Homo sapiens, UniProt P15735);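 also: PHKG2 measured as one member of a kinome-wide kinase panel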
# [3] = molecular target: Protein kinase C delta type (Homo sapiens, UniProt Q05655)
# [4] = molecular target: Tyrosine-protein kinase receptor TYRO3 (Homo sapiens, UniProt Q06418);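 also: TYRO3 value obtained as one member of a kinome-wide profiling panel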
# [5] = molecular target: Testis-specific serine/threonine-protein kinase 2 (Homo sapiens, UniProt Q96PF2);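 also: part of the Navigating the Kinome panel, target entry STK22B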
# [6] = molecular target: Calcium/calmodulin-dependent protein kinase type II subunit delta (Homo sapiens, UniProt Q13557)
# [7] = molecular target: MAP/microtubule affinity-regulating kinase 3 (Homo sapiens, UniProt P27448);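 also: MARK3 affinity measured as one member of a kinome panel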
# Insulin receptor = Insulin receptor (Homo sapiens, UniProt P06213);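 also: insulin receptor kinase tested as one member of a kinome-wide kinase panel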
# [8] = molecular target: Hepatocyte growth factor receptor (Homo sapiens, UniProt P08581);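 also: kinase panel profiling across the kinome, with MET as the panel member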
# [9] = molecular target: Serine/threonine-protein kinase Chk1 (Homo sapiens, UniProt O14757);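 also: measured as one member of a kinome-wide kinase profiling panel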
# [10] = molecular target: MAP kinase-interacting serine/threonine-protein kinase 2 (Homo sapiens, UniProt Q9HBH9)
# [11] = molecular target: cAMP-dependent protein kinase catalytic subunit PRKX (Homo sapiens, UniProt P51817)
# [12] = molecular target: Homeodomain-interacting protein kinase 4 (Homo sapiens, UniProt Q8NE63)
# [13] = molecular target: 3-phosphoinositide-dependent protein kinase 1 (Homo sapiens, UniProt O15530);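 also: value comes from the Navigating the Kinome panel, PDPK1 member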
# [14] = molecular target: cAMP-dependent protein kinase catalytic subunit alpha (Homo sapiens, UniProt P17612)
# [15] = molecular target: Mitogen-activated protein kinase 12 (Homo sapiens, UniProt P53778);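 also: measured as one member of a kinome-wide kinase profiling panel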
# [16] = molecular target: Polyadenylate-binding protein 1 (Homo sapiens, UniProt P11940); assay: PABP1 MLLE–PAM2 interaction inhibitors, dose response, miRNA deadenylation inhibitor project, biochemical, fluorescence polarization, Cy5-PAM2 peptide, secondary (AID 602260); details: read-out: IC50_Mean
# Chain of Insulin receptor (P06213 28-758 limits assumed): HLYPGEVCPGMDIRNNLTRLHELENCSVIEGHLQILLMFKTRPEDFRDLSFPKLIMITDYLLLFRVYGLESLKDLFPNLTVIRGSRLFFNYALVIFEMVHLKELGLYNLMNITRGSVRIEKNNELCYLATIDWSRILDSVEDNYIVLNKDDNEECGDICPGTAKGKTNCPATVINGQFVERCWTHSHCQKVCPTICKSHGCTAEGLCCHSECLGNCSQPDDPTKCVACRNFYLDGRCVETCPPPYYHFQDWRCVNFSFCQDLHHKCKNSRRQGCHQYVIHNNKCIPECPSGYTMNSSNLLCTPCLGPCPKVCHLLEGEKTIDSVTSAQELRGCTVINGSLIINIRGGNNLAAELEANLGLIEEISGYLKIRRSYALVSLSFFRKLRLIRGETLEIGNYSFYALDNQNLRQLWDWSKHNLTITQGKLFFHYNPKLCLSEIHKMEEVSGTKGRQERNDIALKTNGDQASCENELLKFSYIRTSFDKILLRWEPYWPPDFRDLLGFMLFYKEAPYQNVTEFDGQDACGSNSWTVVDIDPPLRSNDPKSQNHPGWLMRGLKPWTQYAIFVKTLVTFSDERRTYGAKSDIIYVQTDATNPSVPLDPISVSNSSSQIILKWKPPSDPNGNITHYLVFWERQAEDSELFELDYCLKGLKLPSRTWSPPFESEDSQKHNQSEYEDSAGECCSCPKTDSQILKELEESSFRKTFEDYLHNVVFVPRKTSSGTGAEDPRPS
# Chain of Insulin receptor (P06213 763-1382 limits assumed): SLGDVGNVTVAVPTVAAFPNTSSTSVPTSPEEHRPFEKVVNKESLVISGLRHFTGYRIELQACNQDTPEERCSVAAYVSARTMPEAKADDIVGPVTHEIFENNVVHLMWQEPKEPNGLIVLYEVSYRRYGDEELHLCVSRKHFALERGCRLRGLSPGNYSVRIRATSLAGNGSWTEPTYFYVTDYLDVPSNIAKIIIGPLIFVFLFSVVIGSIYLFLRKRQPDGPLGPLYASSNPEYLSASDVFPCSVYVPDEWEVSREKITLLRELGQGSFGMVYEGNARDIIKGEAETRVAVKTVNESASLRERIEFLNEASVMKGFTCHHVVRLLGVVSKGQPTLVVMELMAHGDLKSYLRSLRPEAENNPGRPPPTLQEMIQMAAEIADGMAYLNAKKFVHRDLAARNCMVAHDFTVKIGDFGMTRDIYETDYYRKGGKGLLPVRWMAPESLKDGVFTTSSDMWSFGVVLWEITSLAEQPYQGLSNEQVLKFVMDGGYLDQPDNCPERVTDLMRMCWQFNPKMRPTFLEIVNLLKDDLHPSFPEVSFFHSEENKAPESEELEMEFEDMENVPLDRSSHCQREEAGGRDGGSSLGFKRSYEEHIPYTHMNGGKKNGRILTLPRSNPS
# Chain of Hepatocyte growth factor receptor (P08581 whole entry): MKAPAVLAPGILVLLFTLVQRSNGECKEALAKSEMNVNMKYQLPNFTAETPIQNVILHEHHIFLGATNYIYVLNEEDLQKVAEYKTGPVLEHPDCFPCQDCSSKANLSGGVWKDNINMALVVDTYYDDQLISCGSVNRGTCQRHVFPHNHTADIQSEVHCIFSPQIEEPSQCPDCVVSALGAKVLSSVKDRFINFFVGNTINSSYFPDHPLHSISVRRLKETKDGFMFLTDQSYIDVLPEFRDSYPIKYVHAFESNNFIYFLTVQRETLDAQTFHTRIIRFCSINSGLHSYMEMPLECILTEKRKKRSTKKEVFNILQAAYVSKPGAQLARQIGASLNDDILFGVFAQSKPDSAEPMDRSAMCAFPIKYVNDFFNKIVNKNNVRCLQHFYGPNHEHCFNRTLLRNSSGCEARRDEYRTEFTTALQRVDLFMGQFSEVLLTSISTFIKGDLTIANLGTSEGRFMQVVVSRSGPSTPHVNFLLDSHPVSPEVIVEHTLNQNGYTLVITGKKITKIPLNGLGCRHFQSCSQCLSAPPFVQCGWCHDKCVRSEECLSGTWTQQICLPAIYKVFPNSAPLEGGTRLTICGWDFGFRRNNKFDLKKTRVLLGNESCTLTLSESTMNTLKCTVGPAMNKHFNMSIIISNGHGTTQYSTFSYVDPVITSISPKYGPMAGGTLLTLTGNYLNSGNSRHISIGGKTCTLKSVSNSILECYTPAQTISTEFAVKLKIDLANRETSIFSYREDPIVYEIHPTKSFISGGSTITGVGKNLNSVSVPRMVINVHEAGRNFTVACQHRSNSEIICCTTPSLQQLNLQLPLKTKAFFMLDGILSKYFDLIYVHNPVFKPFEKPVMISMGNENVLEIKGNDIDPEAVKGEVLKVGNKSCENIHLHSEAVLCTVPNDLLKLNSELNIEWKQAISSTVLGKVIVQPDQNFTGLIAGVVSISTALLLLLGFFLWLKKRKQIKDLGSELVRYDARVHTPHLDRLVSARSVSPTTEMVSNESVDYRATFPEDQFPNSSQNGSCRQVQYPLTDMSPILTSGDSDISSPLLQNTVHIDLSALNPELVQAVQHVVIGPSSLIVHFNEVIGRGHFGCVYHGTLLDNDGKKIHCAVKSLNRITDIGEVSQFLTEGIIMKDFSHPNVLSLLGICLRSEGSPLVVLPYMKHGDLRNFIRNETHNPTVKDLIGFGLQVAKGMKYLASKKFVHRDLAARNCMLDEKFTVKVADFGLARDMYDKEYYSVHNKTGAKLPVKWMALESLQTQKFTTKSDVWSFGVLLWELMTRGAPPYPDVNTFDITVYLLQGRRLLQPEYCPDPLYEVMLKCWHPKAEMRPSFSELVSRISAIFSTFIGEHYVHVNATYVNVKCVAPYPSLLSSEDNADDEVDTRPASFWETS
# Chain of Homeodomain-interacting protein kinase 4 (Q8NE63 whole entry): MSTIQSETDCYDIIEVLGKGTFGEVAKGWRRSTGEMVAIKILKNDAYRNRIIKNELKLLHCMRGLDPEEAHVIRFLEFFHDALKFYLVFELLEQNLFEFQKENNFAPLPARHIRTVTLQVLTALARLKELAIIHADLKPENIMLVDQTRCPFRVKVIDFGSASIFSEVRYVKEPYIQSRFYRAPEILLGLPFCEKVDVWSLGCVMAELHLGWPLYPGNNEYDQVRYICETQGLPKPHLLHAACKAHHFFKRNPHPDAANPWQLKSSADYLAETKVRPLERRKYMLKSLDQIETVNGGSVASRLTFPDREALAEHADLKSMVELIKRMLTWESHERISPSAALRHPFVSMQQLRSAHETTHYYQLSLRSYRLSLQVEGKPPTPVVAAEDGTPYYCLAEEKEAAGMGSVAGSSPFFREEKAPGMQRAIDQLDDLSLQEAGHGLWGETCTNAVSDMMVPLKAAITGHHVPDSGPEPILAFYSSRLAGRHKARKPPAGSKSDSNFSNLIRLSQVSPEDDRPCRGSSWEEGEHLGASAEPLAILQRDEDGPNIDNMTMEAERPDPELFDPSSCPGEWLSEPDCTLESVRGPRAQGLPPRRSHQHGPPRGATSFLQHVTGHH
# Chain of MAP kinase-interacting serine/threonine-protein kinase 2 (Q9HBH9 whole entry): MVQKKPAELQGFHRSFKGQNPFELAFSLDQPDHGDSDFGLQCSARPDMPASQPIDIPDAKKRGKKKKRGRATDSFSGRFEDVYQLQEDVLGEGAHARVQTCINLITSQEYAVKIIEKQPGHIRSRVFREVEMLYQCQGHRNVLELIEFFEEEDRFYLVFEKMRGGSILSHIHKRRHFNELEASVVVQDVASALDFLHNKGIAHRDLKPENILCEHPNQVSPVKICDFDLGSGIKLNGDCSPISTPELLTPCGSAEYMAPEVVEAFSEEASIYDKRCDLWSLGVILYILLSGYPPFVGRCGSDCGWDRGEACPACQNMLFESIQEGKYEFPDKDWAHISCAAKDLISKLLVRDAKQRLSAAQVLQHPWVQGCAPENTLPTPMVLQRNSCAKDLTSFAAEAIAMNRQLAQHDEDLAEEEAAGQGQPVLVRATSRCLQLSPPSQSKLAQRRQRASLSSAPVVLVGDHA
# Chain of cAMP-dependent protein kinase catalytic subunit PRKX (P51817 whole entry): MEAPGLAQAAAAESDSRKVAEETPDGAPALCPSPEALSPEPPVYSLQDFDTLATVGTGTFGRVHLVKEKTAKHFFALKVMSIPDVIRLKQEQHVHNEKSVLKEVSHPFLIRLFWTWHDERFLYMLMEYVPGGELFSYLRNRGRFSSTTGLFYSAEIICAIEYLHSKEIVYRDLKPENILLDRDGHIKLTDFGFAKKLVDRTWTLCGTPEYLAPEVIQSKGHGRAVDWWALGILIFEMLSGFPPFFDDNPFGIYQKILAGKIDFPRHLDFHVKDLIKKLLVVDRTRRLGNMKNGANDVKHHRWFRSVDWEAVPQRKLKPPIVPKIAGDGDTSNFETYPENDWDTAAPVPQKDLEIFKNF
# Chain of Protein kinase C delta type (Q05655 whole entry): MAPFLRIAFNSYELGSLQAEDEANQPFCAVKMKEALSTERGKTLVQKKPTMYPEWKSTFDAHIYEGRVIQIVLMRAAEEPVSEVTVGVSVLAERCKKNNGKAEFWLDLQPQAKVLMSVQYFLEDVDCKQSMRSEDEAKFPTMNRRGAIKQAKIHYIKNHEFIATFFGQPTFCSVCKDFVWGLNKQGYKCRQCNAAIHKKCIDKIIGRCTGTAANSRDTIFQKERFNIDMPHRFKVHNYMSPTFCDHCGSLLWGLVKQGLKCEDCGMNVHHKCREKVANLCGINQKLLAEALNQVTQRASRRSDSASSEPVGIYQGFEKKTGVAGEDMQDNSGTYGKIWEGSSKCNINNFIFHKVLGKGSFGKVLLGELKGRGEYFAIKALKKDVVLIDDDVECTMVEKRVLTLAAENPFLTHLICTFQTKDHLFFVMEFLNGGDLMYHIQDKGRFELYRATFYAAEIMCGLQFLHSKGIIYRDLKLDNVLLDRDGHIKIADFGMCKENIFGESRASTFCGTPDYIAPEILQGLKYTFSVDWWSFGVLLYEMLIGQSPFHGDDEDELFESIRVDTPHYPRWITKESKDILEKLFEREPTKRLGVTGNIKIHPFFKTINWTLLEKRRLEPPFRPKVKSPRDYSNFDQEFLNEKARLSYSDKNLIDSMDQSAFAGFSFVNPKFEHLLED
structure (smiles),measurement,setting,value
O=C(COC(=O)c1ccc([N+](=O)[O-])s1)Nc1cccc(S(=O)(=O)/N=C2/CCCCCN2)c1,IC50,Prothrombin,> 50 µM (not active)
COc1ccc(C(C[N+](=O)[O-])c2c(C)[nH]n(-c3ccccc3)c2=O)cc1 (centres undefined),AC50,[1],3 µM (active)
same,EC50,Protein RecA,3.3 µM (active)
Oc1c2ccccc2c2c3c(cccc13)N=N2 [SP-600125],Ki,[2],0.631 µM (active)
same,Ki,[3],> 7.94 µM (inactive)
same,Ki,[4],1 µM (active)
same,Ki,[5],> 1.58 µM (inactive)
same,Ki,[6],1 µM (active)
same,Ki,[7],0.00398 µM (active)
same,Ki,Insulin receptor,0.501 µM (active)
same,Ki,[8],0.501 µM (active)
same,Ki,[9],1.26 µM (active)
same,Ki,[10],0.316 µM (active)
same,Ki,[11],> 1.58 µM (inactive)
same,Ki,[12],2 µM (active)
same,Ki,[13],0.631 µM (active)
same,Ki,[14],> 7.94 µM (inactive)
same,Ki,[15],> 6.31 µM (inactive)
same,IC50,[16],> 66 µM (inactive)
